In ChEMBL document CHEMBL4138123, “Design, synthesis and biological evaluation of novel pyrazolochalcones as potential modulators of PI3K/Akt/mTOR pathway and inducers of apoptosis in breast cancer cells” (Eur J Med Chem, 2017):

What was measured:
Assay type in all cases: functional
IGROV-1 = assay: Cytotoxicity against human IGROV1 cells assessed as cell growth at 10 uM after 48 hrs by sulforhodamine B assay relative to control; settings: IGROV-1, 48 h, read-out: Activity
NCI-H322M = assay: Cytotoxicity against human NCI-H322M cells assessed as cell growth at 10 uM after 48 hrs by sulforhodamine B assay relative to control; settings: read-out: Activity
SF-539 [1] = assay: Cytotoxicity against human SF539 cells assessed as cell growth at 1 uM after 48 hrs by sulforhodamine B assay relative to control; settings: SF-539, 48 h, read-out: Activity
SF-539 [2] = assay: Cytotoxicity against human SF539 cells assessed as cell growth at 0.01 uM after 48 hrs by sulforhodamine B assay relative to control; settings: SF-539, 48 h, read-out: Activity
OVCAR-5 [3] = assay: Cytotoxicity against human OVCAR5 cells assessed as cell growth at 10 uM after 48 hrs by sulforhodamine B assay relative to control; settings: OVCAR-5, 48 h, read-out: Activity
SW-620 = assay: Cytotoxicity against human SW620 cells assessed as cell growth at 0.01 uM after 48 hrs by sulforhodamine B assay relative to control; settings: SW-620, 48 h, read-out: Activity
MDA-MB-231 = assay: Cytotoxicity against human MDA-MB-231 cells assessed as cell growth at 100 uM after 48 hrs by sulforhodamine B assay relative to control; settings: MDA-MB-231, 48 h, read-out: Activity
T47D [4] = assay: Cytotoxicity against human T47D cells assessed as growth inhibition after 48 hrs by sulforhodamine B assay
HCT-15 = assay: Cytotoxicity against human HCT15 cells assessed as cell growth at 100 uM after 48 hrs by sulforhodamine B assay relative to control; settings: HCT-15, 48 h, read-out: Activity
UO-31 = assay: Cytotoxicity against human UO31 cells assessed as cell growth at 0.01 uM after 48 hrs by sulforhodamine B assay relative to control; settings: UO-31, 48 h, read-out: Activity
T47D [5] = assay: Cytotoxicity against human T47D cells assessed as cell growth at 1 uM after 48 hrs by sulforhodamine B assay relative to control; settings: read-out: Activity
HCT-116 = assay: Cytotoxicity against human HCT116 cells assessed as cell growth at 100 uM after 48 hrs by sulforhodamine B assay relative to control; settings: HCT-116, 48 h, read-out: Activity
OVCAR-3 = assay: Cytotoxicity against human OVCAR3 cells assessed as growth inhibition after 48 hrs by sulforhodamine B assay; settings: OVCAR-3, 48 h
M14 [6] = assay: Cytotoxicity against human M14 cells assessed as cell growth at 10 uM after 48 hrs by sulforhodamine B assay relative to control; settings: M14, 48 h, read-out: Activity
SK-MEL-5 = assay: Cytotoxicity against human SK-MEL-5 cells assessed as cell growth at 10 uM after 48 hrs by sulforhodamine B assay relative to control; settings: SK-MEL-5, 48 h, read-out: Activity
M14 [7] = assay: Cytotoxicity against human M14 cells assessed as cell growth at 0.01 uM after 48 hrs by sulforhodamine B assay relative to control; settings: M14, 48 h, read-out: Activity
KM12 = assay: Cytotoxicity against human KM12 cells assessed as growth inhibition after 48 hrs by sulforhodamine B assay; settings: KM12, 48 h
BT-549 = assay: Cytotoxicity against human BT549 cells assessed as growth inhibition after 48 hrs by sulforhodamine B assay; settings: BT-549, 48 h
RXF 393 [8] = assay: Cytotoxicity against human RXF393 cells assessed as cell growth at 100 uM after 48 hrs by sulforhodamine B assay relative to control; settings: RXF 393, 48 h, read-out: Activity
HT-29 [9] = assay: Cytotoxicity against human HT-29 cells assessed as cell growth at 10 uM after 48 hrs by sulforhodamine B assay relative to control; settings: HT-29, 48 h, read-out: Activity
SK-OV-3 = assay: Cytotoxicity against human SKOV3 cells assessed as cell growth at 1 uM after 48 hrs by sulforhodamine B assay relative to control; settings: SK-OV-3, 48 h, read-out: Activity
M14 [10] = assay: Cytotoxicity against human M14 cells assessed as cell growth at 100 uM after 48 hrs by sulforhodamine B assay relative to control; settings: M14, 48 h, read-out: Activity
HT-29 [11] = assay: Cytotoxicity against human HT-29 cells assessed as cell growth at 0.1 uM after 48 hrs by sulforhodamine B assay relative to control; settings: HT-29, 48 h, read-out: Activity
T47D [12] = assay: Cytotoxicity against human T47D cells assessed as cell growth at 10 uM after 48 hrs by sulforhodamine B assay relative to control; settings: read-out: Activity
HOP-62 = assay: Cytotoxicity against human HOP62 cells assessed as growth inhibition after 48 hrs by sulforhodamine B assay; settings: HOP-62, 48 h
M14 [13] = assay: Cytotoxicity against human M14 cells assessed as cell growth at 1 uM after 48 hrs by sulforhodamine B assay relative to control; settings: M14, 48 h, read-out: Activity
SN12C [14] = assay: Cytotoxicity against human SN12C cells assessed as growth inhibition after 48 hrs by sulforhodamine B assay
SN12C [15] = assay: Cytotoxicity against human SN12C cells assessed as cell growth at 0.01 uM after 48 hrs by sulforhodamine B assay relative to control; settings: read-out: Activity
RXF 393 [16] = assay: Cytotoxicity against human RXF393 cells assessed as cell growth at 0.01 uM after 48 hrs by sulforhodamine B assay relative to control; settings: RXF 393, 48 h, read-out: Activity
DU-145 = assay: Cytotoxicity against human DU145 cells assessed as cell growth at 100 uM after 48 hrs by sulforhodamine B assay relative to control; settings: DU-145, 48 h, read-out: Activity
786-0 [17] = assay: Cytotoxicity against human 786-0 cells assessed as cell growth at 100 uM after 48 hrs by sulforhodamine B assay relative to control; settings: 786-0, 48 h, read-out: Activity
SNB-19 = assay: Cytotoxicity against human SNB19 cells assessed as cell growth at 100 uM after 48 hrs by sulforhodamine B assay relative to control; settings: SNB-19, 48 h, read-out: Activity
NCI-H226 = assay: Cytotoxicity against human NCI-H226 cells assessed as growth inhibition after 48 hrs by sulforhodamine B assay; settings: NCI-H226, 48 h
SR = assay: Cytotoxicity against human SR cells assessed as cell growth at 0.1 uM after 48 hrs by sulforhodamine B assay relative to control; settings: read-out: Activity
OVCAR-5 [18] = assay: Cytotoxicity against human OVCAR5 cells assessed as cell growth at 0.1 uM after 48 hrs by sulforhodamine B assay relative to control; settings: OVCAR-5, 48 h, read-out: Activity
A498 = assay: Cytotoxicity against human A498 cells assessed as cell growth at 0.01 uM after 48 hrs by sulforhodamine B assay relative to control; settings: A498, 48 h, read-out: Activity
786-0 [19] = assay: Cytotoxicity against human 786-0 cells assessed as cell growth at 0.01 uM after 48 hrs by sulforhodamine B assay relative to control; settings: 786-0, 48 h, read-out: Activity

Compound `COc1ccc(-c2cc(/C=C/C(=O)c3ccc(N)cc3)[nH]n2)cc1` has a growth at 10 µM (IGROV-1) of -21%, a growth at 10 µM (NCI-H322M) of -2% and a growth at 1 µM (SF-539 [1]) of 72%. For the same compound, the growth at 0.01 µM (SF-539 [2]) was 98%, the growth at 10 µM (OVCAR-5 [3]) was -41% and the growth at 0.01 µM (SW-620) was 100%. For the same compound, the growth at 100 µM (MDA-MB-231) was -65%, the GI50 (T47D [4]) was 1.47 µM and the LC50 (T47D [4]) was 85.8 µM. The TGI (T47D [4]) was 9.77 µM, the growth at 100 µM (HCT-15) was -59% and the growth at 0.01 µM (UO-31) was 90%. It also gave a growth at 1 µM (T47D [5]) of 60%, a growth at 100 µM (HCT-116) of -15% and a GI50 (OVCAR-3) of 1.25 µM. For the same compound, the LC50 (OVCAR-3) was 7.09 µM, the TGI (OVCAR-3) was 2.97 µM and the growth at 10 µM (M14 [6]) was -24%. It also gave a growth at 10 µM (SK-MEL-5) of -3%, a growth at 0.01 µM (M14 [7]) of 102% and a GI50 (KM12) of 1.54 µM. The LC50 (KM12) was 7.61 µM, the TGI (KM12) was 3.42 µM and the GI50 (BT-549) was 1.74 µM. For the same compound, the LC50 (concentration killing 50% of cells) (BT-549) was 36.3 µM, the TGI (BT-549) was 4.78 µM and the growth at 100 µM (RXF 393 [8]) was -63%. The growth at 10 µM (HT-29 [9]) was -10%, the growth at 1 µM (SK-OV-3) was 105% and the growth at 100 µM (M14 [10]) was -71%. It also gave a growth at 0.1 µM (HT-29 [11]) of 95%, a growth at 10 µM (T47D [12]) of -1% and a GI50 (HOP-62) of 2.8 µM. It also gave an LC50 (HOP-62) of 61.2 µM, a TGI (HOP-62) of 7.49 µM and a growth at 1 µM (M14 [13]) of 105%. For the same compound, the GI50 (SN12C [14]) was 1.89 µM, the LC50 (SN12C [14]) was 34.9 µM and the TGI (SN12C [14]) was 6.63 µM. The growth at 0.01 µM (SN12C [15]) was 93%, the growth at 0.01 µM (RXF 393 [16]) was 95% and the growth at 100 µM (DU-145) was -100%. It also gave a growth at 100 µM (786-0 [17]) of -57%, a growth at 100 µM (SNB-19) of -80% and a GI50 (NCI-H226) of 2 µM. For the same compound, the LC50 (concentration killing 50% of cells) (NCI-H226) was 92.1 µM, the TGI (NCI-H226) was 5.57 µM and the growth at 0.1 µM (SR) was 98%. It also gave a growth at 0.1 µM (OVCAR-5 [18]) of 95%, a growth at 0.01 µM (A498) of 88% and a growth at 0.01 µM (786-0 [19]) of 96%.
